The structures appear in SMILES notation. A value given as a limit tells only on which side of the number the result lay.

As a reminder, the IC50 is the concentration at which inhibition is half-maximal.

Holding throughout (type): biochemical
The target in assay [1] is recombinant JAK1 (amino acids 866-1154) (Homo sapiens (Human), UniProt P23458). The assay can be described thus: Enzyme inhibition studies, JAK1 (peptide phosphorylation, Caliper LC3000). As to conditions: ATP concentration not given (assayed at ATP Km 55 μM and at 5 mM). How it is done:
(§1) Enzyme inhibition studies were performed using recombinant JAK1 (amino acids 866-1154, Life Technologies, #PV4774, Carlsbad, Calif.), JAK2 (amino acids 831-1132), or JAK3 (amino acids 781-1124) under buffer conditions of 50 mM HEPES pH 7.3, 1 mM DTT, 0.01% Tween® 20, 50 μg/mL BSA, and 10 mM MgCl2. JAK enzyme was expressed as an N-terminal GST fusion in insect cells and purified by glutathione-affinity and size-exclusion chromatographies. […] Phosphorylated and unphosphorylated peptides were separated and quantified by a Caliper LC3000 system (Caliper Life Sciences, MA) for calculating percent inhibition.

The target in assay [2] is recombinant JAK2 (amino acids 831-1132) (Homo sapiens (Human), UniProt O60674). The assay can be described thus: Enzyme inhibition studies, JAK2 (peptide phosphorylation, Caliper LC3000). As to conditions: ATP concentration of the tabulated values not stated (assayed at ATP Km 15 μM and at 5 mM). On the procedure:
as §1

Assay [3] addresses recombinant JAK3 (amino acids 781-1124) (Homo sapiens (Human), UniProt P52333). Description: Enzyme inhibition studies, JAK3 (peptide phosphorylation, Caliper LC3000). As to conditions: ATP concentration of the tabulated values not stated (assayed at ATP Km 3 μM and at 5 mM). On the procedure: as §1

recombinant JAK3 (amino acids 781-1124), sequence (P52333 781-1124): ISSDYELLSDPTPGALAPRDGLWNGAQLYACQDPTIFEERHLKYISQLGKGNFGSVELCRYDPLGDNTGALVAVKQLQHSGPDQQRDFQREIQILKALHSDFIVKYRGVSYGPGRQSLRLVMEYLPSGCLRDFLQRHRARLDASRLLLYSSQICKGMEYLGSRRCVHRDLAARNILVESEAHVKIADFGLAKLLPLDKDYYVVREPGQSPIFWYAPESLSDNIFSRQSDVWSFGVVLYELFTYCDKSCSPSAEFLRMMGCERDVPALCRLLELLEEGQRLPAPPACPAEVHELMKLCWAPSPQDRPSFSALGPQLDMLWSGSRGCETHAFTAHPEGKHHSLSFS
recombinant JAK1 (amino acids 866-1154), sequence (P23458 866-1154): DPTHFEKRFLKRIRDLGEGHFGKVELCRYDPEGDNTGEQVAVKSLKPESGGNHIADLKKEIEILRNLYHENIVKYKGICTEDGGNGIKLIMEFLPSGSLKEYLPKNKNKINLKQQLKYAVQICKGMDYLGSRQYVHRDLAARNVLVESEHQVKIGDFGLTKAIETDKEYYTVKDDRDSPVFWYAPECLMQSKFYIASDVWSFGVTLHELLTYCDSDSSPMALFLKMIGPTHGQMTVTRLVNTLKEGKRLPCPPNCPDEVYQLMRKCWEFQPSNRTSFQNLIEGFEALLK
recombinant JAK2 (amino acids 831-1132), sequence (O60674 831-1132): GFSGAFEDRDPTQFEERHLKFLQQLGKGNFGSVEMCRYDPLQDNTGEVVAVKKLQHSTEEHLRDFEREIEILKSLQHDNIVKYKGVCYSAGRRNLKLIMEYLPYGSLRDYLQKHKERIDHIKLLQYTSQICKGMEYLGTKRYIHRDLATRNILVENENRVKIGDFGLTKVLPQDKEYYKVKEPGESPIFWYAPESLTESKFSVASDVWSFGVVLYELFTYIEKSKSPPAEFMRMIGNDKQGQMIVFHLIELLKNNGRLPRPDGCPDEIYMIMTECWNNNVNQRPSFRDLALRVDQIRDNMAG

On to `COc1nn(C)cc1Nc1nccc(-c2c[nH]c3c(NC(=O)[C@@H](C)N4CCN(C)C[C@@H]4C)cccc23)n1` [Example 1, (2R)-2-[(2S)-2,4-dimethylpiperazin-1-yl]-N-(3-{2-[(3-methoxy-1-methyl-1H-pyrazol-4-yl)amino]pyrimidin-4-yl}-1H-indol-7-yl)propanamide], for which the IC50 in assay [1] amounted to 0.847 µM.

In the case of `COc1nn(C)cc1Nc1ncc(F)c(-c2c[nH]c3c(NC(=O)[C@@H](C)N4CCN(C)[C@H](C)C4)cccc23)n1` [Example 2, (2R)-2-[(3R)-3,4-dimethylpiperazin-1-yl]-N-(3-{5-fluoro-2-[(3-methoxy-1-methyl-1H-pyrazol-4-yl)amino]pyrimidin-4-yl}-1H-indol-7-yl)propanamide], the results for the IC50 in assay [2], in assay [3] and in assay [1] were 12.8 µM, greater than 30 µM and 0.085 µM, respectively.

On to `COCCN1CCN([C@H](C)C(=O)Nc2cccc3c(-c4nc(Nc5cn(C)nc5OC)ncc4F)c[nH]c23)CC1` [Example 3, (2R)-N-(3-{5-fluoro-2-[(3-methoxy-1-methyl-1H-pyrazol-4-yl)amino]pyrimidin-4-yl}-1H-indol-7-yl)-2-[4-(2-methoxyethyl)piperazin-1-yl]propanamide], for which the concentration for half-maximal inhibition (IC50) in assay [2] is 26.8 µM; in assay [3], greater than 30 µM; in assay [1] it was 0.191 µM.

On to `CCN1CCN([C@H](C)C(=O)Nc2cccc3c(-c4nc(Nc5cn(C)nc5OC)ncc4F)c[nH]c23)CC1` [Example 4, (2R)-2-(4-ethylpiperazin-1-yl)-N-(3-{5-fluoro-2-[(3-methoxy-1-methyl-1H-pyrazol-4-yl)amino]pyrimidin-4-yl}-1H-indol-7-yl)propanamide], for which the IC50 in assay [2] was 6.57 µM; in assay [3] it was greater than 30 µM; in assay [1], 0.043 µM.

On to `COc1nn(C)cc1Nc1ncc(F)c(-c2c[nH]c3c(NC(=O)[C@@H](C)N4CCN(C)[C@@H](C)C4)cccc23)n1` [Example 5, (2R)-2-[(3S)-3,4-dimethylpiperazin-1-yl]-N-(3-{5-fluoro-2-[(3-methoxy-1-methyl-1H-pyrazol-4-yl)amino]pyrimidin-4-yl}-1H-indol-7-yl)propanamide], for which the IC50 is 10.4 µM in assay [2], greater than 30 µM in assay [3] and 0.024 µM in assay [1].

On to `COc1nn(C)cc1Nc1ncc(F)c(-c2c[nH]c3c(NC(=O)[C@@H](C)N4CCN(C)C[C@H]4C)cccc23)n1` [Example 6], for which the IC50 in assay [2] was 9.62 µM; in assay [3], greater than 30 µM; in assay [1] it was 0.03 µM.

With `COc1nn(C)cc1Nc1ncc(F)c(-c2c[nH]c3c(NC(=O)[C@@H](C)N4CCN(C)C[C@@H]4C)cccc23)n1` [Example 7a, (2R)-2-[(2S)-2,4-dimethylpiperazin-1-yl]-N-(3-{5-fluoro-2-[(3-methoxy-1-methyl-1H-pyrazol-4-yl)amino]pyrimidin-4-yl}-1H-indol-7-yl)propanamide], the IC50 in assay [2] is greater than 30 µM; in assay [3], greater than 30 µM; in assay [1] it was 0.359 µM.

For the compound `COc1nn(C)cc1Nc1ncc(F)c(-c2c[nH]c3c(NC(=O)[C@H](C)N4CCN(C)C[C@@H]4C)cccc23)n1` [Example 7b, (2S)-2-[(2S)-2,4-dimethylpiperazin-1-yl]-N-(3-{5-fluoro-2-[(3-methoxy-1-methyl-1H-pyrazol-4-yl)amino]pyrimidin-4-yl}-1H-indol-7-yl)propanamide], the figures for the concentration for half-maximal inhibition (IC50) in assay [2], in assay [3] and in assay [1] were greater than 30 µM, greater than 30 µM and 3.6 µM, respectively.

On to `CCOc1nn(C)cc1Nc1ncc(F)c(-c2c[nH]c3c(NC(=O)[C@@H](C)N4CCN(CC)CC4)cccc23)n1` [Example 8, (2R)-N-(3-{2-[(3-ethoxy-1-methyl-1H-pyrazol-4-yl)amino]-5-fluoropyrimidin-4-yl}-1H-indol-7-yl)-2-(4-ethylpiperazin-1-yl)propanamide], for which the IC50 in assay [2] was 23.6 µM; in assay [3], greater than 30 µM; in assay [1], 0.11 µM.

As for `CCOc1nn(C)cc1Nc1ncc(F)c(-c2c[nH]c3c(NC(=O)[C@@H](C)N4CCN(CCOC)CC4)cccc23)n1` [Example 9, (2R)-N-(3-{2-[(3-ethoxy-1-methyl-1H-pyrazol-4-yl)amino]-5-fluoropyrimidin-4-yl}-1H-indol-7-yl)-2-[4-(2-methoxyethyl)piperazin-1-yl]propanamide], the IC50 is greater than 30 µM in assay [2], greater than 30 µM in assay [3] and 0.426 µM in assay [1].

Regarding `CCOc1nn(C)cc1Nc1ncc(F)c(-c2c[nH]c3c(NC(=O)[C@@H](C)N4CCN(C)C[C@@H]4C)cccc23)n1` [Example 10a, (2R)-2-[(2S)-2,4-dimethylpiperazin-1-yl]-N-(3-{2-[(3-ethoxy-1-methyl-1H-pyrazol-4-yl)amino]-5-fluoropyrimidin-4-yl}-1H-indol-7-yl)propanamide], in assay [1], the half-inhibitory concentration (IC50) worked out at 0.846 µM.

For `CCOc1nn(C)cc1Nc1ncc(F)c(-c2c[nH]c3c(NC(=O)[C@H](C)N4CCN(C)C[C@@H]4C)cccc23)n1` [Example 10b, (2S)-2-[(2S)-2,4-dimethylpiperazin-1-yl]-N-(3-{2-[(3-ethoxy-1-methyl-1H-pyrazol-4-yl)amino]-5-fluoropyrimidin-4-yl}-1H-indol-7-yl)propanamide], the concentration for half-maximal inhibition (IC50) in assay [1] was 7.6 µM.

For `CCOc1nn(C)cc1Nc1ncc(F)c(-c2c[nH]c3c(NC(=O)[C@@H](C)N4CCN(C)[C@@H](C)C4)cccc23)n1` [Example 11a, (2R)-2-[(3S)-3,4-dimethylpiperazin-1-yl]-N-(3-{2-[(3-ethoxy-1-methyl-1H-pyrazol-4-yl)amino]-5-fluoropyrimidin-4-yl}-1H-indol-7-yl)propanamide], the 50% inhibitory concentration (IC50) in assay [2] is greater than 30 µM; in assay [3], greater than 30 µM; in assay [1], 0.04 µM.

`CCOc1nn(C)cc1Nc1ncc(F)c(-c2c[nH]c3c(NC(=O)[C@H](C)N4CCN(C)[C@@H](C)C4)cccc23)n1` [Example 11b, (2S)-2-[(3S)-3,4-dimethylpiperazin-1-yl]-N-(3-{2-[(3-ethoxy-1-methyl-1H-pyrazol-4-yl)amino]-5-fluoropyrimidin-4-yl}-1H-indol-7-yl)propanamide]: the IC50 in assay [2] was greater than 30 µM; in assay [3], greater than 30 µM; in assay [1], 1.85 µM.

As to `CCOc1nn(C)cc1Nc1ncc(F)c(-c2c[nH]c3c(NC(=O)[C@@H](C)N4CCN(C)C[C@H]4C)cccc23)n1` [Example 12, (2R)-2-[(2R)-2,4-dimethylpiperazin-1-yl]-N-(3-{2-[(3-ethoxy-1-methyl-1H-pyrazol-4-yl)amino]-5-fluoropyrimidin-4-yl}-1H-indol-7-yl)propanamide], in assay [1], the 50% inhibitory concentration (IC50) is 0.068 µM.

Regarding `CCOc1nn(C)cc1Nc1ncc(F)c(-c2c[nH]c3c(NC(=O)[C@@H](C)N4CCN(C)[C@H](C)C4)cccc23)n1` [Example 13, (2R)-2-[(3R)-3,4-dimethylpiperazin-1-yl]-N-(3-{2-[(3-ethoxy-1-methyl-1H-pyrazol-4-yl)amino]-5-fluoropyrimidin-4-yl}-1H-indol-7-yl)propanamide], the IC50 in assay [2] is greater than 30 µM; in assay [3], greater than 30 µM; in assay [1], 0.166 µM.

As to `COc1nn(C)cc1Nc1ncc(C)c(-c2c[nH]c3c(NC(=O)[C@@H](C)N4CCN(C)[C@@H](C)C4)cccc23)n1` [Example 14, (2R)-2-[(3S)-3,4-dimethylpiperazin-1-yl]-N-(3-{2-[(3-methoxy-1-methyl-1H-pyrazol-4-yl)amino]-5-methylpyrimidin-4-yl}-1H-indol-7-yl)propanamide], the concentration for half-maximal inhibition (IC50) in assay [2] was 6.39 µM; in assay [3], greater than 30 µM; in assay [1], 0.009 µM.

For `COc1nn(C)cc1Nc1ncc(C)c(-c2c[nH]c3c(NC(=O)[C@@H](C)N4CCN(CCO)CC4)cccc23)n1` [Example 15, (2R)-2-[4-(2-hydroxyethyl)piperazin-1-yl]-N-(3-{2-[(3-methoxy-1-methyl-1H-pyrazol-4-yl)amino]-5-methylpyrimidin-4-yl}-1H-indol-7-yl)propanamide], the IC50 in assay [2] was 2.53 µM; in assay [3], greater than 30 µM; in assay [1] it was 0.007 µM.

`CCN1CCN([C@H](C)C(=O)Nc2cccc3c(-c4nc(Nc5cn(C)nc5OC)ncc4C)c[nH]c23)CC1` [Example 16, (2R)-2-(4-ethylpiperazin-1-yl)-N-(3-{2-[(3-methoxy-1-methyl-1H-pyrazol-4-yl)amino]-5-methylpyrimidin-4-yl}-1H-indol-7-yl)propanamide]: the IC50 is 6.24 µM in assay [2], greater than 30 µM in assay [3] and 0.019 µM in assay [1].

As to `COc1nn(C)cc1Nc1nccc(-c2c[nH]c3c(NC(=O)[C@@H](C)N4CCN(C)C[C@H]4C)cccc23)n1` [Example 29, (2R)-2-[(2R)-2,4-dimethylpiperazin-1-yl]-N-(3-{2-[(3-methoxy-1-methyl-1H-pyrazol-4-yl)amino]pyrimidin-4-yl}-1H-indol-7-yl)propanamide], in assay [1], the IC50 came out at 0.097 µM.

Turning to `CC[C@H](C(=O)Nc1cccc2c(-c3nc(Nc4cn(C)nc4OC)ncc3F)c[nH]c12)N1CCN(C)CC1` [Example 51, (2R)-N-(3-{5-fluoro-2-[(3-methoxy-1-methyl-1H-pyrazol-4-yl)amino]pyrimidin-4-yl}-1H-indol-7-yl)-2-(4-methylpiperazin-1-yl)butanamide], the IC50 in assay [1] was less than 0.003 µM.

For `CC[C@@H](C(=O)Nc1cccc2c(-c3nc(Nc4cn(C)nc4OC)ncc3F)c[nH]c12)N1CCN(C)CC1` [Example 52, (2S)-N-(3-{5-fluoro-2-[(3-methoxy-1-methyl-1H-pyrazol-4-yl)amino]pyrimidin-4-yl}-1H-indol-7-yl)-2-(4-methylpiperazin-1-yl)butanamide], the 50% inhibitory concentration (IC50) in assay [1] came out at 0.296 µM.

For the origin of these results see patent US9714236B2, “Compounds and methods for inhibiting JAK” (AstraZeneca AB, priority 2015, dated 2017).
